Drawing on PubChem BioAssay AID1745844 (Carcinogenic Potency Database (CPDB), 2022), this text covers TD50 and carcinogen call for six compounds.

For orientation: TD50 means the dose at which the toxic effect under study appears in half of the subjects.

Activity calls are given as the source filed them. The rule behind the calls is not given here.

This data set relates to rodent lifetime carcinogenesis bioassay, tumor incidence TD50. In words: carcinogenic potency in animals, long-term in vivo studies, CPDB compilation (AID 1745844).

Regarding `CC=NN(C)C=O`, the TD50 is 38.2 mg/kg/day (mouse, strain Swiss albino, females, by gavage, site: clitoral gland, lesion: several types, types named in the paper, dosed 52 weeks, study length 109 weeks); 46.4 mg/kg/day (mouse, strain Swiss albino, females, by gavage, site: clitoral gland, lesion: squamous-cell carcinoma, dosed 52 weeks, study length 109 weeks); 28 mg/kg/day (mouse, strain Swiss albino, females, by gavage, site: forestomach, lesion: several types, types named in the paper, dosed 52 weeks, study length 109 weeks); 32.4 mg/kg/day (mouse, strain Swiss albino, females, by gavage, site: forestomach, lesion: squamous-cell papilloma, dosed 52 weeks, study length 109 weeks); 28 mg/kg/day (inactive) (mouse, strain Swiss albino, females, by gavage, site: liver, lesion: hepatoma, dosed 52 weeks, study length 109 weeks); 19.6 mg/kg/day (mouse, strain Swiss albino, females, by gavage, site: lung, lesion: adenocarcinoma, dosed 52 weeks, study length 109 weeks). Besides, the TD50 reads like this: (mouse, strain Swiss albino, females, by gavage, site: lung, lesion: adenoma, dosed 52 weeks, study length 109 weeks) 7.37 mg/kg/day; (mouse, strain Swiss albino, females, by gavage, site: lung, lesion: several types, types named in the paper, dosed 52 weeks, study length 109 weeks) 5.66 mg/kg/day; (mouse, strain Swiss albino, males, by gavage, site: liver, lesion: hepatoma, dosed 52 weeks, study length 79 weeks) 11 mg/kg/day (inactive); (mouse, strain Swiss albino, males, by gavage, site: lung, lesion: adenoma, dosed 52 weeks, study length 79 weeks) 13.7 mg/kg/day; (mouse, strain Swiss albino, males, by gavage, site: lung, lesion: several types, types named in the paper, dosed 52 weeks, study length 79 weeks) 14.4 mg/kg/day; (mouse, strain Swiss albino, males, by gavage, site: preputial gland, lesion: fibrosarcoma, dosed 52 weeks, study length 79 weeks) 21.3 mg/kg/day. For the same compound, the TD50 (mouse, strain Swiss albino, males, by gavage, site: preputial gland, lesion: several types, types named in the paper, dosed 52 weeks, study length 79 weeks) was 1.61 mg/kg/day and the TD50 (mouse, strain Swiss albino, males, by gavage, site: preputial gland, lesion: squamous-cell carcinoma, dosed 52 weeks, study length 79 weeks) came out at 2.17 mg/kg/day.

With `CN(N=O)c1ccccc1`, the TD50 (rat, strain Chester Beatty albino, females, in drinking water, site: esophagus, lesion: benign tumor, dosed 67 weeks, study length 67 weeks) is 32 mg/kg/day; the TD50 (rat, strain Chester Beatty albino, females, in drinking water, site: esophagus, lesion: squamous-cell carcinoma, dosed 67 weeks, study length 67 weeks) was 26.4 mg/kg/day; the TD50 (rat, strain Chester Beatty albino, males, in drinking water, site: esophagus, lesion: benign tumor, dosed 60 weeks, study length 60 weeks) is 70.4 mg/kg/day; the TD50 (rat, strain Chester Beatty albino, males, in drinking water, site: esophagus, lesion: several types, types named in the paper, dosed 60 weeks, study length 60 weeks) was 5.27 mg/kg/day; the TD50 (rat, strain Chester Beatty albino, males, in drinking water, site: esophagus, lesion: squamous-cell carcinoma, dosed 60 weeks, study length 60 weeks) is 10.5 mg/kg/day; the TD50 (rat, strain Fischer 344, females, in drinking water, site: esophagus, lesion: carcinoma, dosed 50 weeks, study length 114 weeks) is 0.458 mg/kg/day. The TD50 by setting is: (rat, strain Fischer 344, males, in drinking water, site: esophagus, lesion: several types, types named in the paper, dosed 50 weeks, study length 114 weeks) 0.272 mg/kg/day; (rat, strain Sprague-Dawley, both sexes, in drinking water, site: esophagus, lesion: several types, types named in the paper, dosed 104 weeks, study length 104 weeks) 0.0343 mg/kg/day. Moreover, the carcinogen call by setting is: (rat, strain Chester Beatty albino, females, in drinking water, site: esophagus, lesion: several types, types named in the paper, dosed 67 weeks, study length 67 weeks) “positive”; (rat, strain Chester Beatty albino, females, in drinking water, site: liver, lesion: one or several types, types not named, dosed 67 weeks, study length 67 weeks) “negative (inactive)”; (rat, strain Chester Beatty albino, males, in drinking water, site: liver, lesion: one or several types, types not named, dosed 60 weeks, study length 60 weeks) “negative (inactive)”.

As to `S=C([S-])NCCNC(=S)[S-].[Mn+2]`, the TD50 (mouse, strain B6AKF1, females, oral dosing, site: any site (literature study), lesion: several types, types named in the paper, dosed 76 weeks, study length 76 weeks) was 138 mg/kg/day (inactive); the TD50 (mouse, strain B6AKF1, males, oral dosing, site: any site (literature study), lesion: several types, types named in the paper, dosed 76 weeks, study length 76 weeks) was 106 mg/kg/day (inactive); the TD50 (mouse, strain B6AKF1, males, oral dosing, site: lung, lesion: adenoma, dosed 76 weeks, study length 76 weeks) was 54.9 mg/kg/day (inactive); the TD50 (mouse, strain B6C3F1, males, oral dosing, site: any site (literature study), lesion: several types, types named in the paper, dosed 76 weeks, study length 76 weeks) was 62.3 mg/kg/day (inactive); the TD50 (mouse, strain B6C3F1, males, oral dosing, site: liver, lesion: hepatoma, dosed 76 weeks, study length 76 weeks) is 128 mg/kg/day (inactive); the TD50 (mouse, strain B6C3F1, males, oral dosing, site: lung, lesion: adenoma, dosed 76 weeks, study length 76 weeks) is 128 mg/kg/day (inactive). Further, the TD50 (rat, strain Mongrel, both sexes, by gavage, site: any site (literature study), lesion: several types, types named in the paper, dosed 95 weeks, study length 104 weeks) was 157 mg/kg/day. Moreover, the carcinogen call is “negative (inactive)” (mouse, strain B6AKF1, females, oral dosing, site: liver, lesion: hepatoma, dosed 76 weeks, study length 76 weeks); “negative (inactive)” (mouse, strain B6AKF1, females, oral dosing, site: lung, lesion: adenoma, dosed 76 weeks, study length 76 weeks); “negative (inactive)” (mouse, strain B6AKF1, males, oral dosing, site: liver, lesion: hepatoma, dosed 76 weeks, study length 76 weeks); “negative (inactive)” (mouse, strain B6C3F1, females, oral dosing, site: any site (literature study), lesion: one or several types, types not named, dosed 76 weeks, study length 76 weeks); “negative (inactive)” (mouse, strain B6C3F1, females, oral dosing, site: liver, lesion: hepatoma, dosed 76 weeks, study length 76 weeks); “negative (inactive)” (mouse, strain B6C3F1, females, oral dosing, site: lung, lesion: several types, types named in the paper, dosed 76 weeks, study length 76 weeks).

`[O-][Cl+]O`: the TD50 reads like this: (mouse, strain B6C3F1, females, in drinking water, site: liver, lesion: several types, types named in the paper, dosed 85 weeks, study length 85 weeks) 3060 mg/kg/day; (mouse, strain B6C3F1, males, in drinking water, site: any site (literature study), lesion: several types, types named in the paper, dosed 85 weeks, study length 85 weeks) 169 mg/kg/day; (mouse, strain B6C3F1, males, in drinking water, site: liver, lesion: hyperplastic nodule, dosed 85 weeks, study length 85 weeks) 146 mg/kg/day; (mouse, strain B6C3F1, males, in drinking water, site: liver, lesion: several types, types named in the paper, dosed 85 weeks, study length 85 weeks) 110 mg/kg/day; (mouse, strain B6C3F1, males, in drinking water, site: lung, lesion: adenoma, dosed 85 weeks, study length 85 weeks) 346 mg/kg/day; (mouse, strain B6C3F1, males, in drinking water, site: lung, lesion: several types, types named in the paper, dosed 85 weeks, study length 85 weeks) 237 mg/kg/day. Besides, the carcinogen call is, setting by setting: (rat, strain Fischer 344, females, in drinking water, site: any site (literature study), lesion: several types, types named in the paper, dosed 85 weeks, study length 85 weeks) “negative (inactive)”; (rat, strain Fischer 344, males, in drinking water, site: any site (literature study), lesion: several types, types named in the paper, dosed 85 weeks, study length 85 weeks) “negative (inactive)”.

Regarding `NNc1nc(-c2ccc([N+](=O)[O-])o2)cs1`, the TD50 (mouse, strain Swiss, females, in feed, site: any site (literature study), lesion: several types, types named in the paper, dosed 46 weeks, study length 55 weeks) came out at 7.57 mg/kg/day; the TD50 (mouse, strain Swiss, females, in feed, site: forestomach, lesion: squamous-cell papilloma, dosed 46 weeks, study length 55 weeks) is 16.4 mg/kg/day; the TD50 (rat, strain Sprague-Dawley, females, in feed, site: any site (literature study), lesion: several types, types named in the paper, dosed 46 weeks, study length 57 weeks) was 2.83 mg/kg/day; the TD50 (rat, strain Sprague-Dawley, females, in feed, site: kidney, lesion: several types, types named in the paper, dosed 46 weeks, study length 57 weeks) was 36.8 mg/kg/day; the TD50 (rat, strain Sprague-Dawley, females, in feed, site: liver, lesion: cystadenoma, dosed 46 weeks, study length 66 weeks) was found to be 295 mg/kg/day; the TD50 (rat, strain Sprague-Dawley, females, in feed, site: mammary gland, lesion: adenocarcinoma, dosed 46 weeks, study length 57 weeks) was determined as 7.79 mg/kg/day. In addition, the TD50 is 10.9 mg/kg/day (rat, strain Sprague-Dawley, females, in feed, site: mammary gland, lesion: adenocarcinoma, dosed 46 weeks, study length 66 weeks); 25.2 mg/kg/day (rat, strain Sprague-Dawley, females, in feed, site: mammary gland, lesion: adenofibroma, dosed 46 weeks, study length 57 weeks); 2.83 mg/kg/day (rat, strain Sprague-Dawley, females, in feed, site: mammary gland, lesion: several types, types named in the paper, dosed 46 weeks, study length 57 weeks); 3.66 mg/kg/day (rat, strain Sprague-Dawley, females, in feed, site: mammary gland, lesion: several types, types named in the paper, dosed 46 weeks, study length 66 weeks); 145 mg/kg/day (rat, strain Sprague-Dawley, females, in feed, site: salivary gland, lesion: adenocarcinoma, dosed 46 weeks, study length 66 weeks).

On to `CC=O`, for which the TD50 reads like this: (hamster, strain Syrian Golden, females, inhaled, site: larynx, lesion: adenosquamous carcinoma, dosed 52 weeks, study length 81 weeks) 1140 mg/kg/day; (hamster, strain Syrian Golden, females, inhaled, site: larynx, lesion: several types, types named in the paper, dosed 52 weeks, study length 81 weeks) 728 mg/kg/day; (hamster, strain Syrian Golden, females, inhaled, site: larynx, lesion: squamous-cell carcinoma, dosed 52 weeks, study length 81 weeks) 2360 mg/kg/day; (hamster, strain Syrian Golden, males, inhaled, site: larynx, lesion: carcinoma, in situ, dosed 52 weeks, study length 81 weeks) 641 mg/kg/day; (hamster, strain Syrian Golden, males, inhaled, site: larynx, lesion: several types, types named in the paper, dosed 52 weeks, study length 81 weeks) 461 mg/kg/day; (hamster, strain Syrian Golden, males, inhaled, site: larynx, lesion: squamous-cell carcinoma, dosed 52 weeks, study length 81 weeks) 2070 mg/kg/day. The TD50 (hamster, strain Syrian Golden, males, inhaled, site: nose, lesion: anaplastic carcinoma, dosed 52 weeks, study length 81 weeks) was 2070 mg/kg/day; the TD50 (hamster, strain Syrian Golden, males, inhaled, site: respiratory system, lesion: several types, types named in the paper, dosed 52 weeks, study length 81 weeks) is 461 mg/kg/day; the TD50 (rat, strain Wistar-random, females, inhaled, site: nasal mucosa, lesion: adenocarcinoma, dosed 50 weeks, study length 105 weeks) is 201 mg/kg/day; the TD50 (rat, strain Wistar-random, females, inhaled, site: nasal mucosa, lesion: several types, types named in the paper, dosed 50 weeks, study length 105 weeks) is 148 mg/kg/day; the TD50 (rat, strain Wistar-random, females, inhaled, site: nasal mucosa, lesion: squamous-cell carcinoma, dosed 50 weeks, study length 105 weeks) was 574 mg/kg/day; the TD50 (rat, strain Wistar-random, males, inhaled, site: nasal mucosa, lesion: adenocarcinoma, dosed 50 weeks, study length 105 weeks) was 190 mg/kg/day. The TD50 was 88.5 mg/kg/day (rat, strain Wistar-random, males, inhaled, site: nasal mucosa, lesion: several types, types named in the paper, dosed 50 weeks, study length 105 weeks); 200 mg/kg/day (rat, strain Wistar-random, males, inhaled, site: nasal mucosa, lesion: squamous-cell carcinoma, dosed 50 weeks, study length 105 weeks); 370 mg/kg/day (rat, strain Wistar, females, inhaled, site: nose, lesion: adenocarcinoma, dosed 111 weeks, study length 121 weeks); 3000 mg/kg/day (rat, strain Wistar, females, inhaled, site: nose, lesion: carcinoma, in situ, dosed 111 weeks, study length 121 weeks); 1030 mg/kg/day (rat, strain Wistar, females, inhaled, site: nose, lesion: squamous-cell carcinoma, dosed 111 weeks, study length 121 weeks); 185 mg/kg/day (rat, strain Wistar, males, inhaled, site: nose, lesion: adenocarcinoma, dosed 111 weeks, study length 121 weeks). The TD50 (rat, strain Wistar, males, inhaled, site: nose, lesion: squamous-cell carcinoma, dosed 111 weeks, study length 121 weeks) was 627 mg/kg/day.
